# Like-named read-outs stand apart in the source and are kept apart here.
# Legend:
# SU-DHL-2 = experiment: Cell proliferation, Cell-Titre Glo, 72 hours: SU-DHL-2; assay type: cell-based; settings: Homo sapiens, mean ± std. dev.
# Description: NHLF, BJAB, SU-DHL-2, and HCT-116 cells were treated with Compound A197 for 4 hours prior to lysate harvest. Total cellular glutathione (GSH) levels were determined using a luminescent endpoint (GSH-Glo, Promega). Cell proliferation was determined using Cell-Titre Glo following 72 hours of compound treatment. All data shown is mean±SD of three biological replicates.
# HCT-116 = experiment: Apoptosis, 72 hr: HCT-116; assay type: cell-based, human
# [1] = Pharmacokinetics in CD-1 mice, single oral dose compared to single intravenous dose; assay type: in vivo; settings: for bioavailability: CD-1, mouse, po; for Cmax: blood plasma
# Description: Pharmacokinetic Properties of Compound A197 Compound A197 levels in blood plasma of CD-1 mice given a single, oral dose of the agent and compared to a single intravenous dose, were measured to assess basic pharmacokinetic parameters. A197 was dissolved in 1% NMP, 0.3% Tween-80 in 0.5% methylcellulose at a dose volume of 10 ml/kg. Following compound dosing, blood was collected by tail vein bleed at 30 minutes, 1, 2, 4, 8, 12, 24 and 48 hrs following dosing.
# [2] = mouse, plasma, 0.5 mg/kg, Intravenous, 0.5 mpk
structure (smiles),measurement,setting,value
"Cc1nn(-c2nc(-c3ccc(C(F)(F)F)cc3)c(SC(C)C)s2)c(C(=O)O)c1-c1cccc(F)c1 [Compound A197, 4-(3-fluorophenyl)-1-(5-(isopropylthio)-4-(4-(trifluoromethyl)phenyl)thiazol-2-yl)-3-methyl-1H-pyrazole-5-carboxylic acid]",IC50,SU-DHL-2,180 ± 60 nM
same,"Apoptosis, 72 hr",HCT-116,No
same,bioavailability,"[1]; plasma, 2.5 mg/kg, Oral, 2.5 mpk, read-out: % F",59.1%
same,bioavailability,"[1]; plasma, 2.5 mg/kg, single oral dose compared to single intravenous dose, read-out: Bioavailability",59%
same,t1/2,"[1]; Intravenous, 0.5 mpk",5.6 h
same,Cmax,"[1]; mouse, 0.5 mg/kg, Intravenous, 0.5 mpk",2880 ng/mL
same,Cmax,"[1]; mouse, 2.5 mg/kg, Oral, 2.5 mpk",2610 ng/mL
same,AUC(0-inf),[1]; [2],14500 ng·h/mL
same,clearance,[1]; [2],0.58 mL/min/kg
same,Vd,"[1]; mouse, plasma, 0.5 mg/kg, Intravenous, 0.5 mpk, read-out: Vss",0.285 L/kg
same,AUC(0-inf),"[1]; mouse, plasma, 2.5 mg/kg, Oral, 2.5 mpk",42900 ng·h/mL
same,Tmax,"[1]; mouse, plasma, 2.5 mg/kg, single oral dose, read-out: Plasma drug tmax",6 h
same,half-life,"[1]; mouse, plasma, iv, 0.5 mg/kg",5.6 h

# From US20210278408A1, “METHODS OF TREATMENT OF CANCER WITH SUBSTITUTED PYRROLE AND PYRAZOLE COMPOUNDS AND DIAGNOSIS OF CANCERS SUSCEPTIBLE TO TREATMENT WITH SUBSTITUTED PYRROLE AND PYRAZOLE COMPOUNDS” (Bantam Pharmaceutical, LLC, priority 2018, published 2021)
